According to publication PMC7849180 (Frontiers in Pharmacology, 2020):

Key:
[1] = test system: test strains; test: Ames test; settings: 9.76–6100 μg/mL, with or without S9
Source text: Suzhou Zelgen Biopharmaceuticals Co., Ltd. Jaktinib Hydrochloride Tablets

[2] = test system: JAK2 signaling pathway; test: JAK2 signaling in NSG mice injected with HCD-57-JAK2V617F cells; assay type: in vivo; settings: single 200 mg/kg intraperitoneally, 4 h
Protocol: Suzhou Zelgen Biopharmaceuticals Co., Ltd. Jaktinib Hydrochloride Tablets Chemical Drug Class 1 New Drug […]
cells at a concentration of 1 μM. […]
effectively affect the primary cells harboring the JAK2V617F mutation in patients with […]
In Vivo Pharmacodynamic Study of ZG0128 in Mouse Model of Myeloproliferative Neoplasm
Primary myelofibrosis (PMF) is characterized by the formation of bone marrow fibrous tissues (scar-like) caused by the abnormal proliferation of three types of cells (platelets, white blood cells, and red blood cells). At present, there is still no particularly effective treatment for these diseases. JAKV617F transgenic mice and JAK2V617F bone marrow transplanted mice can develop the pathological characteristics of myeloproliferative neoplasm, which can be used to effectively evaluate the efficacy of drugs used in the treatment of myeloproliferative neoplasms.
HCD-57-JAK2V617F cells were intravenously injected into NSG mice. Three weeks later, the mice were injected intraperitoneally with a single dose of 200 mg/kg of compound ZG0128, and euthanized 4 h after drug administration. The results of […]
nucleated cells in spleen were HCD-57-JAK2V617F transplanted cells. Western blot […]
the phosphorylation of downstream major signaling proteins of JAK2, i.e., ERK1/2, […]
inhibit the JAK2 signaling pathway in vivo. […]

[3] = Metabolic stability in liver microsomes; assay type: in vitro ADME, dog
Protocol: The metabolic stability of ZG0128 (the dihydrochloride monohydrate of ZG0163) was evaluated using human, monkey, dog, rat, and mouse liver microsomes as the in vitro models. The percentages of residues for ZG0128 after incubating in human, monkey, dog, rat, and mouse liver microsomes for 60 minutes was 55.5%, 63.1%, 67.1%, 80.3%, and 79.0%, respectively. The CLint values of in vivo clearance were calculated to be 24.1, 21.6, 33.4, 10.7, 26.0 mL/min/kg, respectively. Thus its was speculated that ZG0128 was a medium clearance drug in humans, monkeys, and mice, a high clearance drug in dogs, and a low clearance drug in rats.
Using UPLC-UV/Q-TOF MS, the potential metabolites of ZG0128 in various liver microsomes (human, monkey, dog, rat and mouse liver microsomes) incubation systems were identified and the metabolic pathways of ZG0128 were speculated. The main metabolite of ZG0128 in above five types of liver microsomes were primary alcohol metabolite formed by morpholine ring-opening (M3). […]

[4] = test system: ERK; test: Phosphorylation of Elk-1 by ERK; assay type: biochemical
Source text: (§1) Suzhou Zelgen Biopharmaceuticals Co., Ltd. Jaktinib Hydrochloride Tablets Chemical Drug Class 1 New Drug has been completed. The ongoing toxicity tests include a long-term 39-week toxicity test in Beagle dogs by oral administration, a reproductive toxicity test in rats during the teratogenic sensitive period, and a reproductive toxicity test in rabbits during the teratogenic sensitive period.
(§2) Preclinical Pharmacodynamic Study
(§3) Study on the in vitro Pharmacodynamic Effects of ZG0163 at the […]
(§4) In this study, the effects of ZG0163 was similar to those of positive control compounds, ZG0164 and ZG0178.
(§5) Study on the in vitro Pharmacodynamic Effects of ZG0163 at the Cellular Level (Ba/F3-EpoR-JAK2V617F cells)
(§6) JAK2V617F cell line, the compound ZG0163 was able to induce apoptosis of pathogenic cells and eliminate abnormal cell proliferation by inhibiting the JAK-STAT signaling pathway, thus achieving treatment efficacy in myeloproliferative neoplasms. […]
(§7) cell line, manifested as significant inhibition of phosphorylation of JAK2 and its downstream signaling proteins ERK and STAT5. The effects of ZG0163 was similar to those of positive control compounds, ZG0164 and ZG0178.
(§8) EpoR-JAK2V617F, which was similar to those of positive control compounds, ZG0164

[5] = Accumulated excretion recovery in urine and feces; assay type: in vivo, human; settings: 200 mg jaktinib fasted
Protocol: For MAD cohorts, blood samples were collected at 0, 0.25, 0.5, 1, 1.5, 2, 3, 4, 5, 6, 8 and 12 h on day 1; 0 h on day 2, 3, 4, 6 and 7; 0, 0.25, 0.5, 1, 1.5, 2, 3, 4, 5, 6, 8, 12, 24, 36 and 48 h on day 10. In food effect cohort, blood samples were collected at 0, 0.25, 0.5, 1, 1.5, 2, 3, 4, 5, 6, 8, 12, 24, 36, 48, 72, 96 and 120 h in period one of group A; 0, 0.25, 0.5, 1, 1.5, 2, 3, 4, 5, 6, 8, 12, 24, 36 and 48 h in period two of group A and the two periods of group B. Blood samples were centrifuged at 3,000 rpm for 10 min at 2–8 °C and stored at -80 °C until liquid chromatography-mass spectrophotometry (LC-MS/MS) analysis. Urine and feces samples were collected in period one of group A of food effect cohort with the intervals 0, 0–6, 6–12, 12–24, 24–48, 48–72, 72–96, 96–120 and 0–120 h, respectively.
Urine and feces PK parameter was accumulated excretion recovery ratio from time zero to 120 h (Fe0–120h).

[6] = Treatment-related AEs (NCI CTCAE), MAD cohorts; assay type: in vivo, human
Protocol: MAD study was conducted after evaluating the tolerance of the single dose 100 mg cohort. In MAD part, volunteers were designed into five cohorts (100 mg q24h, 150 mg q24h, 100 mg q12h, 200 mg q24h, 150 mg q12h). […] The MAD part was initiated after the safety and tolerance evaluation from SAD 100 mg cohorts. Progression to higher MAD doses was allowed after review the safety data of the prior MAD cohorts.
Dose-limiting toxicities (DLTs) were defined according to the NCI CTCAE v.4.03 as any occurrence of the following drug-related adverse events (AEs): more than one third of volunteers suffered Grade ≥4 drug-related hematological toxicities or Grade ≥3 drug-related nonhematological toxicities; one drug-related serious adverse events (SAEs).

[7] = biological target: JAK2 (Homo sapiens, UniProt O60674); test: Phosphorylation of STAT3 by JAK2; assay type: biochemical
Source text: as §1, §2, §3, §4, §5, §6, §7, §8

Sequence of JAK2 (O60674 whole entry): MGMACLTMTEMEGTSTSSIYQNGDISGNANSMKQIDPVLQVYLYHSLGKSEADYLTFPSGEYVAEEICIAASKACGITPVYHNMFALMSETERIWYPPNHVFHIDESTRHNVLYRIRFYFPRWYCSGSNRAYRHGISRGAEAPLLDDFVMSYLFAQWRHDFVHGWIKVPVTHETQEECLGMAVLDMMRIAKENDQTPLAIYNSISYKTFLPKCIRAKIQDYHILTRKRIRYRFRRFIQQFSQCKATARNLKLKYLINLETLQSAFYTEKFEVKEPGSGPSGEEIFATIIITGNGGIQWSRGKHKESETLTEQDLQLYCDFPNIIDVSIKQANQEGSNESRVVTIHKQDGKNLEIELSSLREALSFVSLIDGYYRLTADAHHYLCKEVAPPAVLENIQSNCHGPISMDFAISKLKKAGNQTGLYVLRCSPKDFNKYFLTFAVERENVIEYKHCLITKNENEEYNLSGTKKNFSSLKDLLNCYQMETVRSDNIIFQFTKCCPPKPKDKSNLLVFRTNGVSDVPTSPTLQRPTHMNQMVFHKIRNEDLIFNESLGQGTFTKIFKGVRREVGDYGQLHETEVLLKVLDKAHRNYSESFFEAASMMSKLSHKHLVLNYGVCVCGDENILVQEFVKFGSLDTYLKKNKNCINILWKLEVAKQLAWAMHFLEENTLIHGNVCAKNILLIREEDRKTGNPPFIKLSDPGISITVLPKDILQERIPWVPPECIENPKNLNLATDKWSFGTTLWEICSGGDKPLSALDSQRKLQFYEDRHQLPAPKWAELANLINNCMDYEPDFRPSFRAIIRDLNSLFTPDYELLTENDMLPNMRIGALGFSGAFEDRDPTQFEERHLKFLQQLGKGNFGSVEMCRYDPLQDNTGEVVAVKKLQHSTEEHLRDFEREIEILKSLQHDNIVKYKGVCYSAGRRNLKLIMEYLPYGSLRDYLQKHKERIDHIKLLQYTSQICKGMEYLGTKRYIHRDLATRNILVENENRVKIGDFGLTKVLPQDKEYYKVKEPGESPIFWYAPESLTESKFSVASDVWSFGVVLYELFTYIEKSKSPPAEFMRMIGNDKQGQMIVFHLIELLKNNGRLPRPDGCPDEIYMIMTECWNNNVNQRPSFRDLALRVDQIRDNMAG

Row | Molecule | Ames test result [1] | phosphorylation of ERK1/2, Akt and STAT5 in splenocytes [2] | CLint of in vivo clearance [3] | percentage of residue after 60 minutes [3] | effect on phosphorylation of Elk-1 by ERK [4] | Fe0–120h in urine and feces, total of jaktinib and metabolites [5] | Feces-Fe0–120h, total of jaktinib and metabolites [5] | Urine-Fe0–120h, total of jaktinib and metabolites [5] | Feces-Fe0–120h, geometric mean ([5]; n = 6) | Total Fe0–120h (urine and feces) ([5]; n = 6) | Urine-Fe0–120h, geometric mean ([5]; n = 6) | diarrhea incidence ([6]; MAD jaktinib group) | dizziness incidence ([6]; MAD jaktinib group) | leukopenia incidence ([6]; MAD jaktinib group) | volunteers with treatment-related AEs ([6]; all MAD cohorts) | deaths, SAEs and Grade ≥4 AEs ([6]; all cohorts (SAD, MAD, food effect)) | Neutropenia incidence ([6]; in vivo) | maximally tolerated dose ([6]; multiple dose, q24 h) | IC50 [7]
1 | Cl.Cl.O.[2H]C1([2H])COCC([2H])([2H])N1c1ccc(Nc2nccc(-c3ccc(C(=O)NCC#N)cc3)n2)cc1 [ZG0128, Jaktinib Dihydrochloride Monohydrate] | negative | significantly inhibited | 33.4 mL/min/kg | 67.1% |  |  |  |  |  |  |  |  |  |  |  |  |  |  | 
2 | Jaktinib |  |  |  |  | significantly inhibited | 19.478% | 15.350% | 4.128% | 12.681% | 12.813% | 0.132% | 22.5% | 17.5% | 12.5% | 74.0% | No deaths, SAEs and Grade ≥4 AEs were reported | 27.5% | 200 mg | ~100 nM
